Results: ChEMBL document CHEMBL3991601, “The target landscape of clinical kinase drugs” (Science, 2017)
Activity calls are given as the source filed them. Cut-off read from the data, not from the text of the source, for most assays here: actives have a measured Kd and inactives only a lower limit.

What was measured:
Activin receptor type-1B = target: T1, Activin receptor type-1B (Homo sapiens, UniProt P36896)
T1 sequence (P36896 whole entry): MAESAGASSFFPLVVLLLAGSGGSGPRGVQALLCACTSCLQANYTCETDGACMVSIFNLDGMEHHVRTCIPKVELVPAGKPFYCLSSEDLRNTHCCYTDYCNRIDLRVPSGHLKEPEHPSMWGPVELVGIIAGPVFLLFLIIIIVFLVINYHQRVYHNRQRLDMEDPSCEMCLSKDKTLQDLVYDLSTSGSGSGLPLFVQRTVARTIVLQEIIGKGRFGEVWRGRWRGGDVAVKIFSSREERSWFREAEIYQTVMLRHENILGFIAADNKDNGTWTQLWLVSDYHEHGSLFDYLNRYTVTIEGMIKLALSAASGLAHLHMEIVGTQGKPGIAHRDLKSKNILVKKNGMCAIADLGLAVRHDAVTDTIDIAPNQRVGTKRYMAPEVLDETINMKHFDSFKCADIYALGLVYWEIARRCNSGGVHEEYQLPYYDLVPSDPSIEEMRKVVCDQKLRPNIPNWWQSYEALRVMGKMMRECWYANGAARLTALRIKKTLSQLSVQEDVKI

Ephrin type-B receptor 2 = target: T2, Ephrin type-B receptor 2 (Homo sapiens, UniProt P29323)
T2 sequence (P29323 whole entry): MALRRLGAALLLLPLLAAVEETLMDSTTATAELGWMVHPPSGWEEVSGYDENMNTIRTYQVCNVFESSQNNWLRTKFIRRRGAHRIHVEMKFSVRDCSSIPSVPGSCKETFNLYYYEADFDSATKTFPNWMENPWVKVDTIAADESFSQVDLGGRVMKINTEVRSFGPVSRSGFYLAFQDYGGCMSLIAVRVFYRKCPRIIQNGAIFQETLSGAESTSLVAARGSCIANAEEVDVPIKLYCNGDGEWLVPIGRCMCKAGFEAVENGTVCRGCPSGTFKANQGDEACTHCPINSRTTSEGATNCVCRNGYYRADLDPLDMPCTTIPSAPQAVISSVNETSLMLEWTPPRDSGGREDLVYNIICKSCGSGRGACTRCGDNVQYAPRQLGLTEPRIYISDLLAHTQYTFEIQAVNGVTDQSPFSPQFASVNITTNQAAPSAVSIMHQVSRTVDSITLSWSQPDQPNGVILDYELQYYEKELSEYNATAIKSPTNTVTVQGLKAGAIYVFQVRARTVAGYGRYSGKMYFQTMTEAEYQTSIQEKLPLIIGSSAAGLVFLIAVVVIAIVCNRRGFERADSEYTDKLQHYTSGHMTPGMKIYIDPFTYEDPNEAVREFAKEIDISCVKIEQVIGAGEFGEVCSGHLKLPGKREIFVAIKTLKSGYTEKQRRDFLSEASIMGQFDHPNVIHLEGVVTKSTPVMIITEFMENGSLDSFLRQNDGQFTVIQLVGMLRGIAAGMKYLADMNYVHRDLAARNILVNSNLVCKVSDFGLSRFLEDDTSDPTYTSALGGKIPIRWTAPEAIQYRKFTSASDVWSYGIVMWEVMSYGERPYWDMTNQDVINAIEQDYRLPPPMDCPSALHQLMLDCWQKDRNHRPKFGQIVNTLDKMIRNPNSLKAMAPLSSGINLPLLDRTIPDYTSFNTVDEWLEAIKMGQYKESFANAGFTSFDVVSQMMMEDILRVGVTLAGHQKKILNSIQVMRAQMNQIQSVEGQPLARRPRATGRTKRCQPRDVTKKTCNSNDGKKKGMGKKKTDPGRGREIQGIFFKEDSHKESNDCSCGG

[1] = target: Tyrosine-protein kinase HCK (Homo sapiens, UniProt P08631)
Sequence of Tyrosine-protein kinase HCK (P08631 whole entry): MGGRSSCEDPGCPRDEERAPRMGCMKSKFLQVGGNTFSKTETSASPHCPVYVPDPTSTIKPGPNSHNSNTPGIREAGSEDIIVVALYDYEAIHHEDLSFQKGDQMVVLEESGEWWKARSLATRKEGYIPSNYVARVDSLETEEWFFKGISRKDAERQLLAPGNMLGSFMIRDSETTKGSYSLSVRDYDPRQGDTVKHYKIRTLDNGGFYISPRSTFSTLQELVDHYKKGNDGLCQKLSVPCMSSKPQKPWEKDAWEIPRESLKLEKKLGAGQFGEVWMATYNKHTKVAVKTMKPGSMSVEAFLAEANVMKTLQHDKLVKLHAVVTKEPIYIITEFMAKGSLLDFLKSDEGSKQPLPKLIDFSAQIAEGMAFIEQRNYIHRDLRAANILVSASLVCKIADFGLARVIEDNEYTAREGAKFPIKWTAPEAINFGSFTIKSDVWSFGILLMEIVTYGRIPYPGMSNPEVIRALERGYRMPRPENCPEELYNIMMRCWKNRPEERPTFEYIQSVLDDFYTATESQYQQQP

[2] = target: T3, cGMP-dependent protein kinase 1 (Homo sapiens, UniProt Q13976)
T3 sequence (Q13976 whole entry): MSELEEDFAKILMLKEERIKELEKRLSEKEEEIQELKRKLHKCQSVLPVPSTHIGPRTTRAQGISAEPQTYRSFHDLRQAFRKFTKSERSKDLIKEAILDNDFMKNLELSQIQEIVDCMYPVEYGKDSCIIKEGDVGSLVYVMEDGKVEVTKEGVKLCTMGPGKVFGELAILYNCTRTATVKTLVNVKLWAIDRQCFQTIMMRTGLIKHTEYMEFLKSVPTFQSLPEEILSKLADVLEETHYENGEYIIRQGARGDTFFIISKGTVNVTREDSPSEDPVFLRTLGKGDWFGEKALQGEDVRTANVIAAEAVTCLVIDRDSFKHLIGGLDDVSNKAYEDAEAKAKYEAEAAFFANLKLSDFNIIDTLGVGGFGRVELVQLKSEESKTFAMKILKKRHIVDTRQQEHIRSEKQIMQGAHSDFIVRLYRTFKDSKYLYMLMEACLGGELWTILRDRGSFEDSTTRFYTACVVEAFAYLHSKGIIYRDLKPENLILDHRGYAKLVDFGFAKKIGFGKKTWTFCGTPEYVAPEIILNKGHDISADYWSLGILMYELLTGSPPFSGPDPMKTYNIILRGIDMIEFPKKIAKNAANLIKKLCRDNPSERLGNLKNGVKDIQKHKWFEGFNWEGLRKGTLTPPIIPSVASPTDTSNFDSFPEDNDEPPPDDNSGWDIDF

[3] = target: 26S proteasome regulatory subunit 6B (Homo sapiens, UniProt P43686)
Sequence of 26S proteasome regulatory subunit 6B (P43686 whole entry): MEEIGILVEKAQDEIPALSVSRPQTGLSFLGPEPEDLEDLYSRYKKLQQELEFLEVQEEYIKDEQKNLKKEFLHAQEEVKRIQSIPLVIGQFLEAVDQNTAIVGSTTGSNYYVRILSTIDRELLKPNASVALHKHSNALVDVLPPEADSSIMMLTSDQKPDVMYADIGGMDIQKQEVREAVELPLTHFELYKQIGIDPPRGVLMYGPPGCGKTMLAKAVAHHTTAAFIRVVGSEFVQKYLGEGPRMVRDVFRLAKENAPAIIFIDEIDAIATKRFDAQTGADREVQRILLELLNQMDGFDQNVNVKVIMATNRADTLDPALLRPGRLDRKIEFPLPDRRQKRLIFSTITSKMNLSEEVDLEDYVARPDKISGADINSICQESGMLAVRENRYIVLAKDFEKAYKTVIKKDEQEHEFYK

[4] = target: Serine/threonine-protein kinase SIK2 (Homo sapiens, UniProt Q9H0K1)
Sequence of Serine/threonine-protein kinase SIK2 (Q9H0K1 whole entry): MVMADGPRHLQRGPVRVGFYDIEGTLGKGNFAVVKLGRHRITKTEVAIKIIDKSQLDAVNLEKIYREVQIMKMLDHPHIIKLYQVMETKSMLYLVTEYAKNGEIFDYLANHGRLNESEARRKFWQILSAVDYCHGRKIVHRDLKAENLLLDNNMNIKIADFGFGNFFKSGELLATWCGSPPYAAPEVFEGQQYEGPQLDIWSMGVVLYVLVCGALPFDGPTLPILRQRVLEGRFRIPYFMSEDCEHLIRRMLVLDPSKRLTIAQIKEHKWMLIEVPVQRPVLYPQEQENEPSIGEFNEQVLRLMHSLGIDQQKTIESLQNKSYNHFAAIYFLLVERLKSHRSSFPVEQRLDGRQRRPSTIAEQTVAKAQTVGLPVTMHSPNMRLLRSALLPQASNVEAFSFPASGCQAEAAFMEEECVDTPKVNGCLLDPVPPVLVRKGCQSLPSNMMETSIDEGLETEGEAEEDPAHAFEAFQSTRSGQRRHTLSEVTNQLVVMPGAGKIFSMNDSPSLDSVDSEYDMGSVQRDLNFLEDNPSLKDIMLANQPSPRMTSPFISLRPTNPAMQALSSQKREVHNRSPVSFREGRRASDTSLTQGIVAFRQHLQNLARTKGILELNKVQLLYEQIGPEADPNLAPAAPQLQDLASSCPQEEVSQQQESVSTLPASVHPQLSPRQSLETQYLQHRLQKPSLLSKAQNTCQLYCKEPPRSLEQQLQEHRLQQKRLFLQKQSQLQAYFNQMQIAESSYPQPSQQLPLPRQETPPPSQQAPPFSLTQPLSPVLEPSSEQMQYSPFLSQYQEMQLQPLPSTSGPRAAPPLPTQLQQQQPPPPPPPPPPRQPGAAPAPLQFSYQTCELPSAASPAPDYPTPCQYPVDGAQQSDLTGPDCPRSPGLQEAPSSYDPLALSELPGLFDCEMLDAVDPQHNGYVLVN
Note: in the data inactive means no Kd found up to 30 µM.

| Kd (Activin receptor type-1B) | Kd (Ephrin type-B receptor 2) | Kd [1] | Kd [2] | Kd [3] | Kd [4] | Structure (SMILES) |
| --- | --- | --- | --- | --- | --- | --- |
| > 30 µM (inactive) | > 30 µM (inactive) | > 30 µM (inactive) | 0.808 µM (active) | > 30 µM (inactive) | 1.27 µM (active) | Cc1nc(Nc2n[nH]c3c2CN(C(=O)N[C@H](CN(C)C)c2ccccc2)C3(C)C)c2sccc2n1 [PF-03758309] |
| > 30 µM (inactive) | > 30 µM (inactive) | > 30 µM (inactive) | > 30 µM (inactive) | > 30 µM (inactive) | > 30 µM (inactive) | CO[C@H]1C[C@@H]2CC[C@@H](C)[C@@](O)(O2)C(=O)C(=O)N2CCCC[C@H]2C(=O)O[C@H]([C@H](C)C[C@@H]2CC[C@@H](OP(C)(C)=O)[C@H](OC)C2)CC(=O)[C@H](C)/C=C(\C)[C@@H](O)[C@@H](OC)C(=O)[C@H](C)C[C@H](C)/C=C/C=C/C=C/1C [RIDAFOROLIMUS] |
| > 30 µM (inactive) | > 30 µM (inactive) | > 30 µM (inactive) | > 30 µM (inactive) | > 30 µM (inactive) | > 30 µM (inactive) | N#CC1(c2ccc(NC(=O)c3cccnc3NCc3ccncc3)cc2)CCCC1 [RIVOCERANIB] |
| > 30 µM (inactive) | > 30 µM (inactive) | > 30 µM (inactive) | 0.004 µM | > 30 µM (inactive) | > 30 µM (inactive) | O=c1[nH]ccc2cc(OC3CCNCC3)ccc12 [SAR-407899 FREE BASE] |
| > 30 µM (inactive) | > 30 µM (inactive) | > 30 µM (inactive) | > 30 µM (inactive) | 0.005 µM | 0.27 µM (active) | Cn1cc(-c2cnn3c(N)c(Br)c([C@@H]4CCCNC4)nc23)cn1 [SCH-900776] |
| > 30 µM (inactive) | > 30 µM (inactive) | > 30 µM (inactive) | > 30 µM (inactive) | > 30 µM (inactive) | > 30 µM (inactive) | CO[C@H]1C[C@@H]2CC[C@@H](C)[C@@](O)(O2)C(=O)C(=O)N2CCCC[C@H]2C(=O)O[C@H]([C@H](C)C[C@@H]2CC[C@@H](O)[C@H](OC)C2)CC(=O)[C@H](C)/C=C(\C)[C@@H](O)[C@@H](OC)C(=O)[C@H](C)C[C@H](C)/C=C/C=C/C=C/1C [SIROLIMUS] |
| > 30 µM (inactive) | 0.448 µM (active) | 1.16 µM (active) | > 30 µM (inactive) | > 30 µM (inactive) | > 30 µM (inactive) | COc1cc2c(Nc3ccc(Cl)c(Cl)c3F)ncnc2cc1OC[C@@H]1C[C@@H]2CN(C)C[C@@H]2C1 [TESEVATINIB] |
| > 30 µM (inactive) | > 30 µM (inactive) | > 30 µM (inactive) | > 30 µM (inactive) | > 30 µM (inactive) | > 30 µM (inactive) | O=C1NC(=O)[C@@H](c2cn3c4c(cccc24)CCC3)[C@@H]1c1c[nH]c2ccccc12 [TIVANTINIB] |
| > 30 µM (inactive) | > 30 µM (inactive) | > 30 µM (inactive) | > 30 µM (inactive) | > 30 µM (inactive) | > 30 µM (inactive) | CN1C/C=C/CCOc2cccc(c2)-c2ccnc(n2)Nc2cccc(c2)C1 [ZOTIRACICLIB] |

More lines, now with the values behind:

| Structure (SMILES) | Kd (Activin receptor type-1B) | Kd (Ephrin type-B receptor 2) | Kd [1] | Kd [2] | Kd [3] | Kd [4] |
| --- | --- | --- | --- | --- | --- | --- |
| Cc1cnc(NC(=O)Nc2cc(Br)c(C)cc2OC[C@@H]2CNCCO2)cn1 [RABUSERTIB] | > 30 µM (inactive) | > 30 µM (inactive) | > 30 µM (inactive) | > 30 µM (inactive) | > 30 µM (inactive) | > 30 µM (inactive) |
| CN1CCN(CCOc2cc(OC3CCOCC3)c3c(Nc4c(Cl)ccc5c4OCO5)ncnc3c2)CC1 [SARACATINIB] | 0.142 µM (active) | 9.42 µM (active) | 0.1 µM (active) | > 30 µM (inactive) | > 30 µM (inactive) | 1.41 µM (active) |
| CCS(=O)(=O)c1cccc(-c2cc(C(=O)NC3CCN(C)CC3)c(C)c3[nH]c4ncc(C)cc4c23)c1 [TAK-901] | > 30 µM (inactive) | 0.669 µM (active) | 0.143 µM (active) | > 30 µM (inactive) | > 30 µM (inactive) | 0.115 µM (active) |
| CO[C@H]1C[C@@H]2CC[C@@H](C)[C@@](O)(O2)C(=O)C(=O)N2CCCC[C@H]2C(=O)O[C@H]([C@H](C)C[C@@H]2CC[C@@H](OC(=O)C(C)(CO)CO)[C@H](OC)C2)CC(=O)[C@H](C)/C=C(\C)[C@@H](O)[C@@H](OC)C(=O)[C@H](C)C[C@H](C)/C=C/C=C/C=C/1C [TEMSIROLIMUS] | > 30 µM (inactive) | > 30 µM (inactive) | > 30 µM (inactive) | > 30 µM (inactive) | > 30 µM (inactive) | > 30 µM (inactive) |
| O=C(Cc1ccc(-c2ccc(OCCN3CCOCC3)cc2)cn1)NCc1ccccc1 [TIRBANIBULIN] | > 30 µM (inactive) | > 30 µM (inactive) | > 30 µM (inactive) | > 30 µM (inactive) | > 30 µM (inactive) | > 30 µM (inactive) |
| C[C@@H](NC(=O)c1ncnc(N)c1Cl)c1ncc(C(=O)Nc2cc(C(F)(F)F)c(Cl)cn2)s1 [TOVORAFENIB] | > 30 µM (inactive) | > 30 µM (inactive) | > 30 µM (inactive) | > 30 µM (inactive) | > 30 µM (inactive) | > 30 µM (inactive) |
| Cc1cc(Nc2ncnc3ccc(NC4=NC(C)(C)CO4)cc23)ccc1Oc1ccn2ncnc2c1 [TUCATINIB] | > 30 µM (inactive) | > 30 µM (inactive) | > 30 µM (inactive) | > 30 µM (inactive) | > 30 µM (inactive) | > 30 µM (inactive) |
| Cn1ncc(Cl)c1-c1cc(C(=O)N[C@H](CN)Cc2ccc(F)c(F)c2)oc1Cl [UPROSERTIB] | > 30 µM (inactive) | > 30 µM (inactive) | > 30 µM (inactive) | > 30 µM (inactive) | > 30 µM (inactive) | > 30 µM (inactive) |
| CC(C)c1cc(CNc2nc(Nc3cc(C4CC4)[nH]n3)cc(N3CCN(C)CC3)n2)on1 [XL-228] | > 30 µM (inactive) | 2.51 µM (active) | 6.39 µM (active) | > 30 µM (inactive) | > 30 µM (inactive) | 1.8 µM (active) |
| C[C@@H](N)c1ccc(C(=O)Nc2ccnc3[nH]ccc23)cc1 [Y-39983] | > 30 µM (inactive) | > 30 µM (inactive) | > 30 µM (inactive) | > 30 µM (inactive) | > 30 µM (inactive) | > 30 µM (inactive) |
